Test results as given in patent US20230013669A1, “Antibacterial Treatment Using a Cannabinoid and an Active Agent” (priority 2019, published 2023).
Values after ≈ are worked out from the molar mass of the structure shown. Values joined by “and” are separate entries in the source; they are usually repeats but may differ in a detail not shown here. Identical values can stand only once. Counter-ions that a name gives are not always drawn. Like-named read-outs stand apart in the source and are kept apart here. Residues, ends and D or L forms follow the SMILES beside them.

Experiments:
Type in all cases: cell-based
[1] = tested on: Escherichia coli ATCC 25922 (GN_001); assay: MIC micro-broth dilution assay (Example 1 method); conditions: for MIC: Escherichia coli
Protocol: (§4) The plates were covered and incubated at 37° C. for 18-20 h.
(§5) Optical density was read at 600 nm (OD600) using Tecan M1000 Pro Spectrophotometer. […] Analysis was performed using Microsoft Excel.

[2] = tested on: Acinetobacter baumannii ATCC 19606 (GN_034); assay: MIC micro-broth dilution assay (Example 1 method); conditions: for MIC: Acinetobacter baumannii
Protocol: as §4, §5

[3] = tested on: Pseudomonas aeruginosa ATCC 27853 (GN_042); assay: MIC micro-broth dilution assay (Example 1 method); conditions: for MIC: Pseudomonas aeruginosa
Protocol: as §4, §5

[4] = tested on: Klebsiella pneumoniae ATCC 13883 (GN_003 / GN_004); assay: MIC micro-broth dilution assay (Example 1 method); conditions: for MIC: Klebsiella pneumoniae
Protocol: as §4, §5

[5] = tested on: Acinetobacter baumannii AL1851, IpxA mutant; Lipid A deficient (GN_237); assay: MIC broth microdilution, 96-well, visual reading (Example 11); conditions: for MIC: Acinetobacter baumannii, read-out: MIC (Test results), Example 11 Table 41; for MIC / MIC (Test results): GN_237, n=4 replicates; for MIC (Test results): Example 11 Table 41
Protocol: (§1) The experiment was performed to investigate the antimicrobial activity of cannabidiol (CBD) against an LPS deficient strain (GN_237 Acinetobacter baumannii, IpxA mutant; Lipid A deficient; obtained by colistin selection from base strain ATCC 19606) and its parent strain (GN_034, Acinetobacter baumannii, ATCC 19606).
(§2) All plates had flat bottom wells and were covered with low-evaporation lids.
(§3) Two biological replicates ×2 technical replicates were conducted on separate days (final n=4). Inhibition of bacterial growth was determined visually, where the MIC was recorded as the lowest compound concentration with no visible growth.

[6] = tested on: Acinetobacter baumannii ATCC 19606 Type Strain (GN_034); assay: as above; conditions: GN_034, n=4 replicates; for MIC: Acinetobacter baumannii, ATCC19606, read-out: MIC (Test results), Example 11 Table 41; for MIC (Test results): Example 11 Table 41
Protocol: as §1, §2, §3

[7] = Acinetobacter baumannii ATCC 19606
[8] = Pseudomonas aeruginosa ATCC 27853
[9] = Klebsiella pneumoniae ATCC 700603

For `CO/N=C(\C(=O)N[C@@H]1C(=O)N2C(C(=O)O)=C(COC(N)=O)CS[C@H]12)c1ccco1` [Cefuroxime], the MIC ([1]; ATCC25922, read-out: MIC of Cefuroxime, Escherichia coli ATCC 25922) was 2 µg/mL, the MIC ([2]; ATCC19606, read-out: MIC of Cefuroxime, Acinetobacter baumannii ATCC 19606) was 64 µg/mL and the MIC ([2]; ATCC19606, read-out: MIC of cefuroxime, Example 2 Table 8, GN_034) was 64 µg/mL. For the same compound, the MIC ([2]; ATCC19606, read-out: Minimum Inhibitory Concentration (MIC), Example 2 Table 7, GN_034, compound alone, replicates) was greater than 32 µg/mL, the “Minimum Inhibitory Concentration (MIC)” value ([2]; Example 2 Table 7, GN_034, compound alone, replicates, listed as MCC_009386) was >32 μg/mL and 64 μg/mL (2×) and the MIC ([3]; ATCC27853, read-out: MIC of Cefuroxime) was 256 µg/mL. It also gave an MIC ([4]; ATCC 13883 / ATCC 700603, read-out: MIC of Cefuroxime, Klebsiella pneumoniae ATCC 700603) of 16 µg/mL.

In the case of Colistin, the “activity alone” value ([5]; Example 11, Lipid A deficient GN_237) is reported as “resistant”, the “MIC of Colistin” value ([1]; Escherichia coli ATCC 25922) is reported as 0.50 µg/mL and 0.5 µg/mL and the “Minimum Inhibitory Concentration (MIC)” value ([1]; Example 3 Table 11, GN_001, compound alone, replicates, listed as MCC_000094) is reported as 0.25 μg/mL and 0.5 μg/mL and 2 μg/mL (2×). The MIC of Colistin ([1]; Example 3 Table 12, GN_001) was 0.5 µg/mL, the “MIC of Colistin” value [2, 7] was 1.00 µg/mL and 1 µg/mL and the “Minimum Inhibitory Concentration (MIC)” value ([2]; Example 3 Table 11, GN_034, compound alone, replicates) was 1 µg/mL. For the same compound, the MIC of Colistin ([2]; Example 3 Table 12, GN_034) was 1 µg/mL, the “MIC of Colistin” value [3, 8] was 1.00 µg/mL and 1 µg/mL and the “MIC of Colistin” value [4, 9] was 0.50 µg/mL and 0.5 µg/mL.

With `CC1(C)S[C@@H]2[C@H](NC(=O)[C@H](C(=O)O)c3ccsc3)C(=O)N2[C@H]1C(=O)O` [Ticarcillin] the MIC ([1]; ATCC25922, read-out: MIC of Ticarcillin) was 8 µg/mL, the MIC ([2]; ATCC19606, read-out: MIC of Ticarcillin) was 4 µg/mL and the “MIC of Ticarcillin” value [3, 8] was 16 µg/mL. It also gave an MIC ([3]; ATCC27853, read-out: MIC of Ticarcillin, Pseudomonas aeruginosa ATCC 27853) of 32 µg/mL and an MIC ([4]; ATCC 13883 / ATCC 700603, read-out: MIC of Ticarcillin) of 128 µg/mL.

`CC(=O)N[C@H](C(=O)N[C@H](CO)C(=O)N[C@H]1CCNC(=O)[C@H]([C@@H](C)O)NC(=O)[C@H](CCN)NC(=O)[C@H](CCN)NC(=O)[C@H](CC(C)C)NC(=O)[C@@H](Cc2ccccc2)NC(=O)[C@H](CCN)NC1=O)[C@@H](C)O` [Spero Potentiator SPR741] (HELM PEPTIDE1{[ac].T.[dS].[Dab].[Dab].[dF].L.[Dab].[Dab].T}$PEPTIDE1,PEPTIDE1,4:R3-10:R2$$$V2.0) was tested, and the “MIC of Spero Potentiator SPR741” value ([1]; Escherichia coli ATCC 25922, alone) was 64 µg/mL and 128 µg/mL, the “MIC of Spero Potentiator SPR741” value ([2]; Acinetobacter baumannii ATCC 19606, alone) was >128 µg/mL and >64 µg/mL and the “MIC of Spero Potentiator SPR741” value ([3]; Pseudomonas aeruginosa ATCC 27853, alone) was 64.00 µg/mL and 64 µg/mL. The “MIC of Spero Potentiator SPR741” value ([4]; Klebsiella pneumoniae ATCC 700603 (so in the source), alone) was >128 µg/mL and >64 µg/mL.

`CCC[C@@H]1C[C@@H](C(=O)N[C@@H]([C@H]2O[C@H](SC)[C@H](O)[C@@H](O)[C@H]2O)[C@H](C)Cl)N(C)C1` [Clindamycin hydrochloride monohydrate] was tested, and the MIC [6] was 128 µg/mL, the “MIC (Test results)” value [6] was 128 μg/mL (2×) and >128 μg/mL and the MIC [5] was 4 µg/mL. The “MIC (Test results)” value [5] was 4 μg/mL and 8 μg/mL (2×).

In the case of `C/C(=C\C(=O)OCCCCCCCCC(=O)O)C[C@@H]1OC[C@H](C[C@@H]2O[C@H]2[C@@H](C)[C@H](C)O)[C@@H](O)[C@H]1O` [Mupirocin], the MIC [6] is reported as 128 µg/mL (≈ 256 µM), the “MIC (Test results)” value [6] is reported as 128 µg/mL (≈ 256 µM) and the MIC [5] is reported as 32 µg/mL (≈ 63.9 µM). For the same compound, the “MIC (Test results)” value [5] was 16 µg/mL (≈ 32 µM).

Colistin Sulfate was tested, and the “MIC (Test results)” value [6] was 1 µg/mL and the “MIC (Test results)” value [5] was >128 μg/mL (2×) and 128 μg/mL (2×).

In the case of Gentamycin, the “MIC (Test results)” value [6] is reported as 32 μg/mL (2×) and 64 μg/mL (2×) and the “MIC (Test results)” value [5] is reported as 1 μg/mL (2×) and 2 μg/mL and 0.5 μg/mL.

In the case of Teicoplanin, the “MIC (Test results)” value [6] is reported as greater than 128 µg/mL and the “MIC (Test results)” value [5] is reported as 0.25 μg/mL (2×) and 0.5 μg/mL.

`CC(C)(O/N=C(\C(=O)N[C@@H]1C(=O)N2C(C(=O)[O-])=C(C[n+]3ccccc3)CS[C@H]12)c1csc(N)n1)C(=O)O` [Ceftazidime] was tested, and the “MIC of Ceftazidime” value ([1]; Escherichia coli ATCC 25922) was 0.062 µg/mL, the MIC ([1]; ATCC25922, read-out: MIC of Ceftazidime, Escherichia coli ATCC 25922) was 0.06 µg/mL and the “MIC of Ceftazidime” value [2, 7] was 4 µg/mL. For the same compound, the MIC ([2]; ATCC19606, read-out: MIC of Ceftazidime, Acinetobacter baumannii ATCC 19606) was 4 µg/mL, the “MIC of Ceftazidime” value [3, 8] was 4 µg/mL and the MIC ([3]; ATCC27853, read-out: MIC of Ceftazidime) was 4 µg/mL. For the same compound, the “MIC of Ceftazidime” value [4, 9] was 128 µg/mL and the MIC ([4]; ATCC 13883 / ATCC 700603, read-out: MIC of Ceftazidime, Klebsiella pneumoniae ATCC 700603) was 64 µg/mL.
